Measurements as given in paper PMC8201479, “Trisubstituted Pyrrolinones as Small-Molecule Inhibitors Disrupting the Protein–RNA Interaction of LIN28 and Let-7” (ACS Medicinal Chemistry Letters, 2021).
Like-named read-outs stand apart in the source and are kept apart here.

How the values were obtained:
LIN28–let-7 interaction [1] = target: T1, LIN28–let-7 interaction (Homo sapiens, UniProt Q9H9Z2); experiment: Fluorescence polarization (FP) assay, LIN28A (residues 16–187) and FAM-labeled preE-let-7f-1; format: binding; conditions: for IC50: Table 1, quadruplicate, eight concentrations, read-out: IC50, LIN28–let-7 inhibitory activity; for FP, Average (mP): raw data Table S3, four replicates
T1 construct: Purified LIN28A (residues 16–187) was incubated at a concentration of 200 nM; His-tag (cleaved yes); made in house; host or cells: Escherichia coli BL21(DE3)
T1 sequence (Q9H9Z2 16-187): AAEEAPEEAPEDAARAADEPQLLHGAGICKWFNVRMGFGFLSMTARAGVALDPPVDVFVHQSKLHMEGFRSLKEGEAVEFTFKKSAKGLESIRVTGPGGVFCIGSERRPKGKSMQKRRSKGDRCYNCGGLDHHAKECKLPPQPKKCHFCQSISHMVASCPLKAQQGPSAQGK

LIN28–let-7 interaction [2] = target: T1, LIN28–let-7 interaction; experiment: as above; format: binding
Method: Protein expression and purification.
19 vector and overexpressed in Escherichia coli BL21(DE3). The culture was incubated at 37 °C until
the absorbance at 600 nm (OD600) reached 0.5–0.7. IPTG was added to a final concentration of
300 µM, and overnight induction was performed at 18 °C. Cells were harvested by centrifugation.
The bacterial pellet was resuspended in lysis buffer (50 mM NaH2PO4, pH 7.5, 300 mM NaCl,
0.1 mM PMSF) and lysed using a Microfluidizer (Microfluidics) . A fresh portion of 0.1 mM PMSF
and Triton X-100 (1% final concentration) were added. The lysate was cleared by ultra centrifugation
at 30000 xg and 4 °C for 1 h. The protein purification was performed using immobilized nickel
300 mM NaCl and 5 % glycerol. Gradient elution was performed with a maximum of 0.5 M imidazole.
Subsequently, the affinity tag was cleaved using His6 -TEV-protease and the protease and unspecific
binders were eliminated by a second nickel affinity chromatography. After protein concentration
LIN28A containing fractions were concentrated and applied to a High Load Superdex 75 pg 16/600
column (GE Healthcare) with gel-filtration buffer (30 mM NaH2PO4, pH 7.5, 50 mM NaCl, 5%
glycerol, 2 mM β-ME). The purified protein was concentrated and stored at -80 °C until further
Fluorescence polarization. The fluorescence polarization assay was performed in black low volume
IC50 measurements were performed with three technical
minutes with compound concentrations ranging from 0.3 nM to 100 µM in FP assay buffer (20 mM
Tris, pH 7, 100 mM NaCl, 5 mM MgCl2, 2 mM glutathione (reduced), 0.1 % NP-40). Subsequently,
FAM-labeled preE-let-7f-1 (mus musculus) ([…]-
FAM, synthesized by IDT) was added to a final concentration of 2 nM. Fluorescence polarization
was detected after incubation at room temperature using a TECAN Spark plate reader. Half maximal
inhibitory concentrations (IC50) were determined using GraphPad Prism 7. […]

[3] = starting from a maximum concentration of 60 μM
[4] = starting from 30 μM, extrapolated based on the observed IC50 curves
[5] = starting from a maximum of 60 μM, extrapolated based on the observed IC50 curves
[6] = text and figures, C-labels = library sample, PH-labels = in-house resynthesized, read-out: IC50 in the FP assay

Compound | FP, Average (mP) (LIN28–let-7 interaction [1]; 0.041 μM compound) | FP, Average (mP) (LIN28–let-7 interaction [1]; 0.123 μM compound) | FP, Average (mP) (LIN28–let-7 interaction [1]; 0.368 μM compound) | FP, Average (mP) (LIN28–let-7 interaction [1]; 1.103 μM compound) | FP, Average (mP) (LIN28–let-7 interaction [1]; 3.125 μM compound) | FP, Average (mP) (LIN28–let-7 interaction [1]; 9.375 μM compound) | FP, Average (mP) (LIN28–let-7 interaction [1]; 29.688 μM compound) | FP, Average (mP) (LIN28–let-7 interaction [1]; 59.375 μM compound) | IC50 (LIN28–let-7 interaction [1]; [4]) [µM] | further results
O=C(C1=C(O)C(=O)N(c2ccc(O)c(C(=O)O)c2)C1c1ccc(-c2nccs2)cc1)c1ccco1 (stereo not shown) [PH-43] | 110.50 | 109.50 | 109.75 | 98.88 | 79.00 | 55.18 | 37.25 | 33.68 |  | IC50 (LIN28–let-7 interaction [1]; [3]): 5 µM
COc1ccc(C(=O)C2=C(O)C(=O)N(c3ccc(O)c(C(=O)O)c3)C2c2ccc(C(=O)O)cc2)cc1 (stereo not shown) [C885] |  |  |  |  |  |  |  |  | 30 to 40 | 
COc1ccc(C(=O)C2=C(O)C(=O)N(c3cccc(C(=O)O)c3)C2c2ccc([N+](=O)[O-])cc2)cc1 (stereo not shown) [C883] |  |  |  |  |  |  |  |  | > 100 | 
O=C(C1=C(O)C(=O)N(c2ccc(C(=O)O)c(O)c2)C1c1ccc(-c2nccs2)cc1)c1ccc(Br)cc1 (stereo not shown) [PH-30] | 110.75 | 116.25 | 115.75 | 116.25 | 107.00 | 111.25 | 107.25 | 98.68 |  | IC50 (LIN28–let-7 interaction [1]; [5]): > 100 µM
O=C(O)c1ccc(C2C(C(=O)c3ccccc3)=C(O)C(=O)N2c2ccc(O)c(C(=O)O)c2)cc1 (stereo not shown) [C880/PH-39] | 111.50 | 113.50 | 115.75 | 112.00 | 91.63 | 55.98 | 41.63 | 45.53 |  | IC50 (LIN28–let-7 interaction [1]; [3]): 6 µM; IC50 (LIN28–let-7 interaction [2]; [6]): < 30 µM
O=C(C1=C(O)C(=O)N(c2cccc(-c3nnn[nH]3)c2)C1c1ccc(-c2nccs2)cc1)c1ccccc1 (stereo not shown) [C898] |  |  |  |  |  |  |  |  | > 100 | 
O=C(O)c1cccc(N2C(=O)C(O)=C(C(=O)c3ccc(Br)cc3)C2c2ccc([N+](=O)[O-])cc2)c1 (stereo not shown) [C891] |  |  |  |  |  |  |  |  | > 100 | 
O=C(O)c1ccc(C2C(C(=O)c3ccc(Br)cc3)=C(O)C(=O)N2c2cccc(-c3nnn[nH]3)c2)cc1 (stereo not shown) [C896] |  |  |  |  |  |  |  |  | > 100 | 
O=C(O)c1ccc(C2C(C(=O)c3ccccc3)=C(O)C(=O)N2c2ccc(C(=O)O)cc2)cc1 (stereo not shown) [C882] |  |  |  |  |  |  |  |  | > 100 | 
O=C(O)c1ccc(C2C(C(=O)c3ccc(Br)cc3)=C(O)C(=O)N2c2ccc(C(=O)O)cc2)cc1 (stereo not shown) [C895] |  |  |  |  |  |  |  |  | > 100 | 
COc1ccc(C(=O)C2=C(O)C(=O)N(c3cccc(C(=O)O)c3)C2c2ccc(C(=O)O)cc2)cc1 (stereo not shown) [C886] |  |  |  |  |  |  |  |  | > 100 | 
O=C(O)c1ccc(C2C(C(=O)c3ccccc3)=C(O)C(=O)N2c2ccc(C(=O)O)c(O)c2)cc1 (stereo not shown) [PH-38] | 113.00 | 113.25 | 117.75 | 113.25 | 101.00 | 86.53 | 50.30 | 49.00 |  | IC50 (LIN28–let-7 interaction [1]; [3]): 16 µM
COc1ccc(C(=O)C2=C(O)C(=O)N(c3cccc(-c4nnn[nH]4)c3)C2c2ccc(-c3nccs3)cc2)cc1 (stereo not shown) [C901] |  |  |  |  |  |  |  |  | > 100 | 
COc1ccc(C(=O)C2=C(O)C(=O)N(c3ccc(O)c(C(=O)O)c3)C2c2ccc(-c3nccs3)cc2)cc1OC (stereo not shown) [PH-44] | 96.70 | 118.00 | 115.00 | 107.75 | 92.95 | 82.98 | 63.53 | 54.00 |  | IC50 (LIN28–let-7 interaction [1]; [3]): 12 µM
O=C(O)c1ccc(C2C(C(=O)c3ccccc3)=C(O)C(=O)N2c2ccc(O)cc2)cc1 (stereo not shown) [PH-36] | 115.00 | 116.25 | 113.50 | 112.00 | 104.83 | 108.50 | 96.03 | 79.35 |  | IC50 (LIN28–let-7 interaction [1]; [5]): > 100 µM; activity in the FP assay (LIN28–let-7 interaction [2]): inactive
COc1ccc(C(=O)C2=C(O)C(=O)N(c3cccc(C(=O)O)c3)C2c2ccc(-c3nccs3)cc2)cc1 (stereo not shown) [C900] |  |  |  |  |  |  |  |  | > 100 | 
O=C(O)c1cccc(N2C(=O)C(O)=C(C(=O)c3ccccc3)C2c2ccc(-c3nccs3)cc2)c1 (stereo not shown) [C897] |  |  |  |  |  |  |  |  | 30 to 40 | 
O=C(O)c1ccc(C2C(C(=O)c3ccccc3)=C(O)C(=O)N2c2cccc(C(=O)O)c2)cc1 (stereo not shown) [C881] |  |  |  |  |  |  |  |  | > 100 | 
O=C(C1=C(O)C(=O)N(c2ccc(O)c(C(=O)O)c2)C1c1ccc(-c2nccs2)cc1)c1ccccc1 (stereo not shown) [C879/PH-34] | 117.25 | 110.90 | 115.50 | 113.50 | 89.73 | 88.63 | 73.03 | 53.40 |  | IC50 (LIN28–let-7 interaction [1]; [3]): 12 µM; IC50 (LIN28–let-7 interaction [2]; [6]): < 30 µM
O=C(O)c1ccc(C2C(C(=O)c3ccc(Br)cc3)=C(O)C(=O)N2c2ccc(O)c(C(=O)O)c2)cc1 (stereo not shown) [C893] |  |  |  |  |  |  |  |  | 30 to 40 | 
O=C(C1=C(O)C(=O)N(c2cccc(-c3nnn[nH]3)c2)C1c1ccc([N+](=O)[O-])cc1)c1ccc(Br)cc1 (stereo not shown) [C892] |  |  |  |  |  |  |  |  | > 100 | 
COc1ccc(C(=O)C2=C(O)C(=O)N(c3ccc(C(=O)O)cc3)C2c2ccc([N+](=O)[O-])cc2)cc1 (stereo not shown) [C884] |  |  |  |  |  |  |  |  | > 100 | 
O=C(C1=C(O)C(=O)N(c2ccc(O)cc2)C1c1ccc(-c2nccs2)cc1)c1ccc(Br)cc1 (stereo not shown) [PH-35] | 115.25 | 112.75 | 116.50 | 109.50 | 110.25 | 104.00 | 104.65 | 93.48 |  | IC50 (LIN28–let-7 interaction [1]; [5]): > 100 µM
O=C(O)c1ccc(C2C(C(=O)c3ccc(Br)cc3)=C(O)C(=O)N2c2cccc(C(=O)O)c2)cc1 (stereo not shown) [C894] |  |  |  |  |  |  |  |  | > 100 | 
O=C(C1=C(O)C(=O)N(c2ccc(O)c([N+](=O)[O-])c2)C1c1ccc(-c2nccs2)cc1)c1ccccc1 (stereo not shown) [PH-37] | 113.25 | 106.48 | 115.75 | 111.25 | 111.50 | 95.58 | 86.53 | 71.50 |  | IC50 (LIN28–let-7 interaction [1]; [3]): 41 µM
COc1ccc(C(=O)C2=C(O)C(=O)N(c3cccc(-c4nnn[nH]4)c3)C2c2ccc(C(=O)O)cc2)cc1 (stereo not shown) [C888] |  |  |  |  |  |  |  |  | > 100 | 
COc1ccc(C(=O)C2=C(O)C(=O)N(c3ccc(C(=O)O)cc3)C2c2ccc(C(=O)O)cc2)cc1 (stereo not shown) [C887] |  |  |  |  |  |  |  |  | > 100 | 
O=C(O)c1ccc(N2C(=O)C(O)=C(C(=O)c3ccc(Br)cc3)C2c2ccc(-c3nccs3)cc2)cc1 (stereo not shown) [C899] |  |  |  |  |  |  |  |  |  | IC50 (LIN28–let-7 interaction [2]): > 100 µM
